{"source": "paper PMC10504561", "about": "(Plant Communications, 2023)", "test_in_all_cases": "LC-DAD of product", "format_in_all_cases": "biochemical", "conditions_in_all_cases": "S-adenosyl-L-methionine co-substrate, pH 7.5, 28 °C, 2 h", "key": {"[1]": {"target": "T1, Gmγ-TMT2 (Glycine max, UniProt Q56GA2)", "T1 sequence (Q56GA2 51-350)": "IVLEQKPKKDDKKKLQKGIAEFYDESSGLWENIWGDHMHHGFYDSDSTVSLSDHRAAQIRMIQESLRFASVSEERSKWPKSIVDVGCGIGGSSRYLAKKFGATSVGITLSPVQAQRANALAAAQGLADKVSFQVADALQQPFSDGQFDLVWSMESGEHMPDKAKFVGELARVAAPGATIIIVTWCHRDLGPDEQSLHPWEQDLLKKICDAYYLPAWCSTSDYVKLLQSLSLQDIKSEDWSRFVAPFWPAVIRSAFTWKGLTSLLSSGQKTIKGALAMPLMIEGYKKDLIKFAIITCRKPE"}, "[2]": {"target": "T2, Gmγ-TMT1 (Glycine max, UniProt A0A4D6BQA3)", "T2 sequence (A0A4D6BQA3 1-296)": "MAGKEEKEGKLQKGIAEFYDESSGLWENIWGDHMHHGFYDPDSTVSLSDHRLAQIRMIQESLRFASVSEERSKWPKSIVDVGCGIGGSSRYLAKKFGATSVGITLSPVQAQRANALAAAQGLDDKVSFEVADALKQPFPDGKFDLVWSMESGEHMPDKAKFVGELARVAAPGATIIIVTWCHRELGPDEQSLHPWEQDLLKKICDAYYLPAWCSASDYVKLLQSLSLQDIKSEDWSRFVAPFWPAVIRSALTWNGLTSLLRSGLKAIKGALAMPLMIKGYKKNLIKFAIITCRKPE"}, "[3]": {"target": "T3, Gmγ-TMT3 (Glycine max, UniProt A0A4D6BMW5)", "T3 sequence (A0A4D6BMW5 1-302)": "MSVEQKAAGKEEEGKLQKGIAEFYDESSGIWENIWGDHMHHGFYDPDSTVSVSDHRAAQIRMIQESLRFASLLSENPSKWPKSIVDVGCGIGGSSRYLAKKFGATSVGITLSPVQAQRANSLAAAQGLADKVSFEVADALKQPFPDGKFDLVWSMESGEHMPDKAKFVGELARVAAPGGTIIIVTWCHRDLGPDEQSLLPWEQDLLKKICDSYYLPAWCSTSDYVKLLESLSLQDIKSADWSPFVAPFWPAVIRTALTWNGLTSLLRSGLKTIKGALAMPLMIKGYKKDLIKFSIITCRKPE"}}}
{"smiles": "Cc1c(O)cc2c(c1C)O[C@](C)(CCC[C@H](C)CCC[C@H](C)CCCC(C)C)CC2", "note": "[γ-T]", "values": [{"measurement": "activity", "setting": "[1]", "result": "Gmγ-TMT3 had three-fold higher activity toward γ-T than Gmγ-TMT1 and Gmγ-TMT2"}, {"measurement": "activity", "setting": "[2]", "result": "Gmγ-TMT3 had three-fold higher activity toward γ-T than Gmγ-TMT1 and Gmγ-TMT2"}, {"measurement": "activity", "setting": "[3]", "result": "Gmγ-TMT3 had three-fold higher activity toward γ-T than Gmγ-TMT1 and Gmγ-TMT2"}]}
